Calls of active or inactive are those of the source.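 How the source made its calls: active means no band for the ATF-6 stress protein on the immunoblot of thapsigargin-stressed cell lysates; inactive means ATF-6 band still present, cleavage not blocked.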

This assay relates to CSM14.1 cells, thapsigargin, ATF-6 Western blot. Nature of the assay: blockers of ER stress ATF-6 induction – cell-based, thapsigargin, Western blot, mechanism study for ER stress cell death inhibitors, late-stage follow-up (AID 1390). For orientation: A western blot detects proteins with antibodies after separation by electrophoresis.
Consider `CCOc1cccc(C2Nc3ccccc3NC3=C2C(=O)CC(c2ccc(OC)cc2)C3)c1` (stereo unspecified), for which the outcome was inactive. The entry for `CCOc1cc(C2Nc3ccccc3NC3=C2C(=O)CC(c2ccc(OC)cc2)C3)cc(Cl)c1O` (stereo unspecified) is “inactive”.

For the compound `CC1(C)CC(=O)C2=C(C1)Nc1ccccc1NC2c1ccc(-c2ccccc2)cc1` (stereo unspecified), the outcome was inactive.

Regarding `CCCOc1ccc(C2Nc3ccccc3NC3=C2C(=O)CC(c2ccc(OC)c(OC)c2)C3)cc1` (stereo unspecified), the result was inactive.

For the compound `O=C1CC(c2ccccc2)CC2=C1C(c1c(F)cccc1Cl)Nc1ccccc1N2` (stereo unspecified), the outcome was inactive. On to `CSc1ccc(C2Nc3ccccc3NC3=C2C(=O)CC(c2ccccc2)C3)cc1` (stereo unspecified), for which the result was inactive. The entry for `COc1ccc(C2CC(=O)C3=C(C2)Nc2ccccc2NC3c2cccc(Oc3ccccc3)c2)cc1OC` (stereo unspecified) is “inactive”. With `COc1ccc(C2CC(=O)C3=C(C2)Nc2ccccc2NC3c2ccccc2C(F)(F)F)cc1OC` (stereo unspecified), the outcome was inactive. The entry for `COc1ccc(C2CC(=O)C3=C(C2)Nc2ccccc2NC3c2cccc(Br)c2)cc1OC` (stereo unspecified) is “inactive”; for `COc1ccc(C2CC(=O)C3=C(C2)Nc2ccccc2NC3c2cccc(C(F)(F)F)c2)cc1OC` (stereo unspecified) it is “inactive”; for `COc1ccc(C2CC(=O)C3=C(C2)Nc2ccccc2NC3c2cc(C)ccc2C)cc1` (stereo unspecified) it is “inactive”.

Source of the values: PubChem BioAssay AID1390 (Sanford-Burnham Center for Chemical Genomics, 2008).
